Test results from PubChem BioAssay (NCI).
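Where inhibition never reached the appropriate level, the endpoint shown equals the highest concentration tested. Otherwise, values were interpolated linearly from a five-concentration, 48-hour dose response in 96-well plates. TGI is the concentration that stops growth completely.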

Assays:
Test in all cases: growth of human tumour cells (NCI), 48 h
[1] = system: MCF7 breast
[2] = system: DU-145 prostate
[3] = system: HCC-2998 colon
[4] = system: NCI/ADR-RES ovarian
[5] = system: HOP-92 NSCLC
[6] = system: U251 CNS
[7] = system: SK-OV-3 ovarian
[8] = system: HOP-62 NSCLC
[9] = system: OVCAR-8 ovarian
[10] = system: A498 renal
[11] = system: PC-3 prostate
[12] = system: SW-620 colon

SMILES	TGI [1] [µM]	TGI [2] [µM]	TGI [3] [µM]	TGI [4] [µM]	TGI [5] [µM]	TGI [6] [µM]	TGI [7] [µM]	TGI [8] [µM]	TGI [9] [µM]	TGI [10] [µM]	TGI [11] [µM]	TGI [12] [µM]
COc1cc(COC(=O)N[C@H](C(=O)O)C(C)(C)C)c([N+](=O)[O-])cc1OC	> 100	> 100	> 100	> 100	> 100	> 100	> 100	> 100	> 100	> 100	> 100	> 100
CCOC(=O)c1cc2c([N+](=O)[O-])c(NC(C)=O)ccc2s1	> 100	> 100	> 100	> 100	> 100	> 100	> 100	> 100	> 100	> 100	> 100	> 100
C[C@]12OC[C@H](c3ccccc3)N1C(=O)C1[C@H]2CC12SCCS2 (some centres not stated)	> 100	> 100	> 100	> 100	> 100	> 100	> 100	> 100	> 100	> 100	> 100	> 100
CC(=O)OCC1OC(N2C(=O)/C(=C\c3ccc(Cl)cc3)C(N)=Nc3ccccc32)C(OC(C)=O)C(OC(C)=O)C1OC(C)=O (configuration not stated)	33.1	> 100	36.5	> 100	45.2	30.5	> 100	85.7	26.7	> 100	59.8	> 100
CC(C)(C)C(=O)C(CC(=O)c1ccccc1)C(=O)C(C)(C)C	> 100	> 100	> 100	> 100	> 100	> 100	> 100	> 100	> 100	> 100	> 100	> 100
Cc1ccc(N=Nc2c3c(c(O)c4ccccc24)CCC(C)(C)O3)cc1	27.2	26	34.3	> 100	> 100	> 100	> 100	36.6	> 100	38.6	> 100	> 100
COc1ncc(C=C(C#N)C#N)c(OC)n1	> 100	> 100		64.1	> 100	> 100	> 100	> 100	62	> 100	> 100	> 100
CCOC(=O)c1sc2nc(SC)nc3c2c1N=CN3c1ccc(Br)cc1	> 100	> 100	> 100	> 100	> 100	> 100	> 100	> 100	> 100	> 100	> 100	> 100
O=c1oc2ccccc2c(O)c1C(c1cc(OCc2ccccc2)cc(OCc2ccccc2)c1)c1c(O)c2ccccc2oc1=O	48.5	24.5	11.9	83.9	> 28.3	> 47.3	20.1	37	> 44.5	32.1	21.1	> 43.8
C/C(=N\NC(=S)NC(C)C)c1nc2ncccc2[nH]1	> 100	> 100	> 100	> 100	84.3	> 100	33.4	> 64.2	52.7	> 100	> 100	> 100
CO[C@@H](C(=O)OC1C=CC2(CC1)C(=O)N(C)c1ccccc12)c1ccccc1 (some centres not stated)	> 100	> 100	> 100	> 100	> 100	> 100	> 100	> 100	> 100	> 100	> 100	> 100
O=C(O)c1ccc(NC(c2ccccc2)c2ccc3cccnc3c2O)cc1 (configuration not stated)	> 80.7	> 100	> 74.8	> 45.3	> 100	> 41.2	> 100	> 100	> 41.5	78.4	> 96	> 55.8
Cc1c(S(=O)(=O)c2ccccc2)c(N)n(Cc2ccccc2)c1C	> 100	> 100	> 100	> 100	> 100	> 100	> 100		> 100	> 100	> 100	> 100
Clc1nc(Cl)nc(NC23CC4CC(CC(C4)C2)C3)n1	> 64.3	31.3	41.2	44.5	35.5	30.5	> 57.1	34.5	34.9	> 58.3	> 49.6	31.5
c1cc2nnc1SCCSCCSc1ccc(nn1)SCCSCCS2	> 100	> 100	> 100	> 100	> 100	> 100	> 100	> 100	> 100	> 100	> 100	> 100
Nc1nc2ncc(SCc3ccc(C(=O)NC(CCC(=O)O)C(=O)O)cc3)cc2c(=O)[nH]1 (configuration not stated)	> 100	> 100	> 100	> 100	> 100	> 100	> 100	> 100	> 100	> 100	> 100	> 100
Cc1cccc(N2C(=O)C3ON(C(C(N)=O)c4ccccc4)C(c4c5ccccc5c(Cl)c5ccccc45)C3C2=O)c1C (configuration not stated)	17.9	43.2		37.1	22.6	15.6	> 50	24.4	25.1	32.2	17	> 50
N#Cc1c(N)[nH]c(=S)c(C#N)c1-c1cccc(Cl)c1	> 100	> 100	35.6	> 100	> 100	> 100		> 100	> 100	> 100	60.1	> 100
